Measurements published in patent US20230218618A1, “ADMINISTRATION OF SUMO-ACTIVATING ENZYME INHIBITOR AND ANTI-CD38 ANTIBODIES” (MILLENNIUM PHARMACEUTICALS, INC., priority 2020, published 2023).

Tested on: Daudi human Burkitt’s Lymphoma cell line
Test: Study 7: Daudi xenograft human Burkitt's lymphoma subcutaneous tumor model (daratumumab or AB79)
Assay type: in vivo, CB17 SCID mice
Experimental: Low tumor volumes can cause problems with the data analysis, so all measurements below 25 cubic mm (including 0 values) were excluded from the analysis. After this exclusion step, the tumor volume was assumed to follow an exponential growth model. More specifically, for a given animal and treatment group,
Pairwise comparisons were performed, where the mean growth rates were compared for various pairs of treatment conditions. The results were summarized using the growth rate inhibition (GRI). Suppose µT and µC are the mean tumor growth rates for the treatment and reference groups, respectively. Define
Here, µAB, µA, µB, and µControl are the mean growth rates for the combination, drug A, drug B, and control groups, respectively. As before, µv is the mean tumor growth rate for the vehicle group, which in most cases is the same as the control group. The standard error of the synergy score was calculated as the square root of the sum of squared standard errors across the four groups. The degrees of freedom were estimated using the Welch-Satterthwaite equation. A hypothesis test was performed to determine if the synergy score differed from 0. P-values were calculated by dividing the synergy score by its standard error and tested against a t-distribution (two-tailed) with the above-calculated degrees of freedom. A P value of less than 0.05 is statistically significant.
The combination results can be interpreted as follows. Statistically significant negative synergy scores indicate a synergistic combination (“Syn.”). Statistically significant positive synergy scores indicate a sub-additive combination (“Sub-add.”) when the combination performs better (i.e. has a lower growth rate) than the best performing single agent. Statistically significant positive synergy scores indicate an antagonistic combination (“Antag.”) when the combination performs worse than the best performing single agent. Scores that are not statistically significant should be considered additive (“Add.”).
Daudi is a human Burkitt’s Lymphoma cell line. A Daudi human xenograft tumor model was generated by subcutaneous inoculation with 2.0 × 10^6 Daudi cells (cell suspension) in 7 weeks old female CB17 SCID mice (Charles River Laboratories, 251 Ballardvale St., Wilmington, MA) in the flank. When the mean tumor volume reached approximately 110 mm3, the animals were randomized into one vehicle control and six treatment groups (n=8/group). Mice were then dosed with 20% HPβCD or Compound I-263a and/or daratumumab or AB79 over a 21-day period. Tumor growth and body weight were measured twice per week during the treatment and post-treatment periods, and mice were humanely euthanized once they had reached their humane endpoint.
A 0.75 mg/mL stock solution of I-263a was formulated weekly in 20% HPβCD and administered intravenously (IV) based on an average body weight using a 0.2 mL dosing volume. Final doses of I-263a received were 7.5 mg/kg. I-263a was administered on a BIW schedule for 3 weeks (Days 1, 4, 8, 11, 15, and 18). Daratumumab (anti-CD38 antibody) (Myoderm Medical Supplies, 48 E Main St., Norristown, PA 19401) was purchased at the beginning of the study and stored at 4° C. according to manufacturer’s instructions. Final dose of daratumumab received was 7.5 mg/kg based on average body weight. Daratumumab was administered intraperitoneally (IP) using a 0.1 mL dosing volume, on a BIW schedule for 3 weeks (Days, 1, 4, 8, 11, 15, and 18). AB79 was formulated on the day of dosing in 0.9% saline and administered intraperitoneally (IP) using a 0.1 mL dosing volume, on a BIW schedule for 3 weeks (Days, 1, 4, 8, 11, 15, and 18). Final dose of AB79 was 7.5 mg/kg based on average body weight.
Tumors were measured twice weekly using Vernier calipers. Tumor volumes were calculated using standard equation: V = W2 × L/2, where V = volume, W = width, and L = length for the tumor. […]

Which results are given for “AB79: human monoclonal antibody that binds specifically to the CD38 transmembrane glycoprotein”?
Tumor Volume on Day 22 (±SEM) (AB79 7.5 mg/kg BIW IP): 1033.8 (±208.8); GRI% (AB79 7.5 mg/kg BIW IP, vs vehicle): 29%; Tumor growth relative to vehicle-treated tumors (pairwise comparison) (each agent 7.5 mg/kg BIW, I-263a p = 0.105, daratumumab p < 0.001, AB79 p = 0.002, both combinations p < 0.001, data up to Day 22): tumor growth inhibition
